“And” between values parts separate entries of the source, which are not always exact repeats. Equal values may be shown once.

The results in this text go back to ChEMBL document CHEMBL5728589, “Inhibitors of RIP1 kinase and methods of use thereof” (2021).

This assay has as its target T1, Receptor-interacting serine/threonine-protein kinase 1 (Homo sapiens, UniProt Q13546).
T1 sequence (Q13546 whole entry): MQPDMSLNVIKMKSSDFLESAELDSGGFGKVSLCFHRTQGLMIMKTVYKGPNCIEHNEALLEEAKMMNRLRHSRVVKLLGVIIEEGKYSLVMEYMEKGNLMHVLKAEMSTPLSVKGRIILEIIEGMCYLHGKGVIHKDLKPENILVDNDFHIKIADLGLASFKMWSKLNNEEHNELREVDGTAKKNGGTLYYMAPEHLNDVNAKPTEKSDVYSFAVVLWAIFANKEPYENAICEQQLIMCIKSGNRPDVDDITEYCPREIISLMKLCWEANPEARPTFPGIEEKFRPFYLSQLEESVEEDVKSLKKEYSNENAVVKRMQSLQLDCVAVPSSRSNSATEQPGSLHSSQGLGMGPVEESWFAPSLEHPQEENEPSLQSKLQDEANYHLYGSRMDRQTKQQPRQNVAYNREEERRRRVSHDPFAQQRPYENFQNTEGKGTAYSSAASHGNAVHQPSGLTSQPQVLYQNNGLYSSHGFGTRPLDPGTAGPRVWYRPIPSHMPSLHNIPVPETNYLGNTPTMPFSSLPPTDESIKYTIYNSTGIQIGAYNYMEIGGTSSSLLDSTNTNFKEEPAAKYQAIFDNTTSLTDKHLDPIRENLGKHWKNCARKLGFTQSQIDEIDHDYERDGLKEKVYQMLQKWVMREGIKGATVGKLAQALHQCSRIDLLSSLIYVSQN
The assay is described as follows: Enzyme Assay: The ability of the receptor interacting protein kinase (RIPK1) to catalyze the hydrolysis of adenosine-5′-triphosphate (ATP) is monitored using the Transcreener ADP (adenosine-5′-diphosphate) assay (BellBrook Labs).

In general, Ki refers to a measure of affinity in units of concentration, obtained from inhibition or displacement. Low values mean tighter binding, high ones weaker binding. Turning to `CCC(F)(F)[C@H]1CCc2nc(C(=O)N[C@H]3CCc4cc(F)cc(F)c4NC3=O)nn21`, the Ki is 21 nM and 14 nM.
